Measured values published in ChEMBL document CHEMBL1145434, “Optimization of novel combi-molecules: identification of balanced and mixed bcr-abl/DNA targeting properties” (Bioorg Med Chem Lett, 2007).
Activity calls are given as the source filed them. No cut-off for these calls is given here.

Legend:
[1] = target: Tyrosine-protein kinase ABL1 (Homo sapiens, UniProt P00519)
[2] = system: K562; test: cells; details: Homo sapiens
Description: Cytotoxicity against K562 cells by MTT assay

[3] = species: Homo sapiens; test: Effect on DNA damage in p210 transfected M07 cells; assay type: functional, cell-based

Sequence of Tyrosine-protein kinase ABL1 (P00519 whole entry): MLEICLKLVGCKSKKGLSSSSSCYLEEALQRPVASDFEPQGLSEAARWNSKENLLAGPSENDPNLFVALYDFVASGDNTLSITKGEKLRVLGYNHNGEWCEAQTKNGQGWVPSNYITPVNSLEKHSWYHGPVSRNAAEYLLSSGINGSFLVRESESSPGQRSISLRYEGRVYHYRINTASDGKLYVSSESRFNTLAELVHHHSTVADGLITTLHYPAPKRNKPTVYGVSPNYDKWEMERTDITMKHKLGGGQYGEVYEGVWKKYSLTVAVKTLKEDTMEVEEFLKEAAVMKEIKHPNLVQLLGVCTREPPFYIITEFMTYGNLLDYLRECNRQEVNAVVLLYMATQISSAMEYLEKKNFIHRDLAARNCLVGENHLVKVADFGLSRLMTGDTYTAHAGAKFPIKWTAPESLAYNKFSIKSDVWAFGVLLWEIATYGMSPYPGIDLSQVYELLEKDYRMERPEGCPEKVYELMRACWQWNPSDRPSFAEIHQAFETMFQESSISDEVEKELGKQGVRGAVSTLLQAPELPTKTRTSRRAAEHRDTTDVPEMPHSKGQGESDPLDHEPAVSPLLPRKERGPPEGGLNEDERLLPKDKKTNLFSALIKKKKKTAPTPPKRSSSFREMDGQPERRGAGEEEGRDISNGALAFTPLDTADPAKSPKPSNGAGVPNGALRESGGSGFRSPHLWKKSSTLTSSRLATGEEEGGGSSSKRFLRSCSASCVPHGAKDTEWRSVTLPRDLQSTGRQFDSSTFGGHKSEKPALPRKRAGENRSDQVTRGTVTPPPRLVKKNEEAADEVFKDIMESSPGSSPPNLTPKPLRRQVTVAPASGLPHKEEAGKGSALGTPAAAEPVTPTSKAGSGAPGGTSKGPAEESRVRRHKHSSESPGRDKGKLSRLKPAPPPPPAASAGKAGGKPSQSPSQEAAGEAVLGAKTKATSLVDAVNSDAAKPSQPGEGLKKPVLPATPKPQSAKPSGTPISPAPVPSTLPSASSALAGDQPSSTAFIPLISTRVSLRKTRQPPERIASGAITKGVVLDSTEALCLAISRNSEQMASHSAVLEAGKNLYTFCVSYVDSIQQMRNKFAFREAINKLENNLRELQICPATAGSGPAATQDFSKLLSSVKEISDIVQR

Cc1ccc(NC(=O)c2ccc(N(CCCl)CCCl)cc2)cc1Nc1nccc(-c2cccnc2)n1
IC50 [1]: 220 nM | IC50 [2]: 2460 nM

Cc1ccc(NC(=O)c2ccc(CN(C)CCCl)cc2)cc1Nc1nccc(-c2cccnc2)n1
IC50 [2]: 79700 nM

Cc1ccc(NC(=O)c2ccc(N)cc2)cc1Nc1nccc(-c2cccnc2)n1
IC50 [1]: > 10000 nM

CNN=Nc1ccc(C(=O)Nc2ccc(C)c(Nc3nccc(-c4cccnc4)n3)c2)cc1C(F)(F)F
Activity [3]: Active | IC50 [2]: 113 nM

CNN=Nc1ccc(C(=O)Nc2ccc(C)c(Nc3nccc(-c4cccnc4)n3)c2)cc1Cl
IC50 [2]: 9980 nM

Cc1ccc(NC(=O)c2ccc(N=NN(C)C)c(C(F)(F)F)c2)cc1Nc1nccc(-c2cccnc2)n1
IC50 [2]: 52 nM

Cc1ccc(NC(=O)c2ccc(N)c(C(F)(F)F)c2)cc1Nc1nccc(-c2cccnc2)n1
IC50 [2]: 316 nM

Cc1ccc(NC(=O)c2ccc(N=NN(C)CO)c(C(F)(F)F)c2)cc1Nc1nccc(-c2cccnc2)n1
IC50 [2]: 187 nM

Cc1ccc(NC(=O)c2ccc(CN(CCCl)CCCl)cc2)cc1Nc1nccc(-c2cccnc2)n1
IC50 [1]: > 10000 nM | IC50 [2]: > 100000 nM
